Measurements taken from PubChem BioAssay (NCI).
Where “and” joins values, the source holds several entries; their conditions need not be identical. Identical values can stand only once.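 Protocol summary: plate cells (96-well), add compound at 5 concentrations, incubate 48 h, interpolate endpoints linearly. GI50: concentration for 50% inhibition of growth. The concentration for full growth arrest is given as TGI.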 Where a SMILES comes first, the peptide text is derived from it. [ ]: non-standard residue; d: D form. The star is where a group is joined. ξ: configuration not given here. NMeY = CN[C@@H](Cc1ccc(O)cc1)C(=O)O; Cbz = O=C(OCc1ccccc1)*; ξA = CC(N)C(=O)O

How the values were obtained:
Assay in all cases: NCI-60 cell line screen, 48 h
NCI-H460 lung = tested on: NCI-H460 lung
UACC-62 melanoma = tested on: UACC-62 melanoma
ACHN renal = tested on: ACHN renal
HOP-62 NSCLC = tested on: HOP-62 NSCLC
PC-3 prostate = tested on: PC-3 prostate
DU-145 prostate = tested on: DU-145 prostate
COLO 205 colon = tested on: COLO 205 colon

| Structure (SMILES) | TGI (NCI-H460 lung) | TGI (UACC-62 melanoma) [µM] | TGI (ACHN renal) | TGI (HOP-62 NSCLC) | TGI (PC-3 prostate) | TGI (DU-145 prostate) | TGI (COLO 205 colon) | GI50 (NCI-H460 lung) [µM] | GI50 (ACHN renal) [µM] | GI50 (HOP-62 NSCLC) [µM] | GI50 (DU-145 prostate) [µM] | GI50 (COLO 205 colon) [µM] |
| --- | --- | --- | --- | --- | --- | --- | --- | --- | --- | --- | --- | --- |
| O=C(c1ccccc1)c1ccc(N2C(=O)/C(=C/c3ccccc3S)N=C2c2ccccc2)c(N2C(=O)/C(=C/c3ccccc3S)N=C2c2ccccc2)c1 | > 100 µM | > 100 | > 100 µM | > 100 µM | > 100 µM | > 100 µM | > 100 µM |  |  |  |  |  |
| CCOC(=O)/C=C(/C(=O)OCC)n1ccc(=O)n(Cc2cn(CCCCOC(C)=O)nn2)c1=O | > 100 µM | > 100 | > 100 µM | > 100 µM | > 100 µM | > 100 µM | > 100 µM |  |  |  |  |  |
| CCC1=CC(OCc2ccccc2)C(CCN(Cc2ccccc2)C(=O)OCc2ccccc2)C1 (stereo not drawn) | 39.7 µM | 24.8 | 30.9 µM | 37.1 µM | 42.9 µM | 30.2 µM | 45.6 µM |  |  |  |  |  |
| Cc1cn(C2CC(O)C(Cn3nncc3Cn3cnc4c(N)ncnc43)O2)c(=O)[nH]c1=O (stereo not drawn) |  | > 100 | > 100 µM | > 100 µM | > 100 µM | > 100 µM | > 100 µM |  |  |  |  |  |
| C1CSCCSCCSCCSCCS1 | > 100 µM | > 100 | > 100 µM | > 100 µM | > 100 µM | > 100 µM | > 100 µM |  |  |  |  |  |
| Nc1ccc(-c2nc3ccccc3s2)cc1CO | > 100 µM | > 100 | > 100 µM | > 90.4 µM | > 100 µM | > 100 µM | > 100 µM |  |  |  |  |  |
| COc1ccc2nc3c4c(nccc4c2c1)-c1ncccc1C3=O | 0.119 µM | 0.159 | 0.174 µM | 0.402 µM | 3.14 µM | 0.023 µM | 1.28 µM |  |  |  |  |  |
| C=CC(C)(C)NC(C(=O)N1CCC[C@H]1c1nc(-c2nc(C(=O)OCC=C(C)C)c(C)o2)c(C)o1)C(C)C (stereo partly drawn) | > 100 µM | > 60.9 | > 68.1 µM | > 100 µM | > 100 µM | > 100 µM | > 100 µM |  |  |  |  |  |
| O=S(=O)(O)c1c(Cl)c(Cl)c(O)c2ncccc12 | 25.5 µM | 29.7 | 26.2 µM | 17.6 µM | > 59.6 µM | 61.4 µM | 31.8 µM |  |  |  |  |  |
| Cc1cc(-c2nc3cc(F)ccc3s2)ccc1N | > 54.9 µM | > 100 | > 87.3 µM | 72 µM | > 76.2 µM | > 92.1 µM | > 67.3 µM |  |  |  |  |  |
| C1=NN2C(c3ccccc3)=NOC2C2C(c3ccccc3)=NOC12 (stereo not drawn) | > 100 µM | > 100 | > 100 µM | > 100 µM | > 100 µM | > 100 µM | > 100 µM |  |  |  |  |  |
| OC1C2CCCCN2C[C@@H](O)[C@H]1O (stereo partly drawn) | > 100 µM | > 100 | > 100 µM | > 100 µM | > 100 µM | > 100 µM | > 100 µM |  |  |  |  |  |
| COc1ccc(/C(C)=C2\CCCN(Cc3ccccc3)C2)cc1 | 53.5 µM | 57.9 | 98.4 µM | 33.6 µM | 62.7 µM | > 100 µM | 32.5 µM |  |  |  |  |  |
| O=C1CC(n2ccnc2)c2c(Cl)sc(Cl)c21 (stereo not drawn) | > 73.9 µM | 32 | 33.2 µM | 51.9 µM | 36.7 µM | 30.6 µM | 33.8 µM |  |  |  |  |  |
| Cn1c2ncccc2n2c(=O)cc(O)cc12 | > 100 µM | > 100 | > 100 µM | > 100 µM | > 100 µM | > 100 µM | > 100 µM |  |  |  |  |  |
| CCOC(=O)c1c2ccccc2n2c(=O)n(-c3ccc(OC)cc3)nnc12 | > 100 µM | 99.6 | > 100 µM | 63 µM | > 66.1 µM | > 100 µM | > 100 µM |  |  |  |  |  |
| CNC(=O)O/N=C1\N(C)CN(c2ccccc2)C12CCN(CCCC(=O)c1ccc(F)cc1)CC2 | > 100 µM | > 100 | > 100 µM | > 100 µM | > 100 µM | > 100 µM | 33.2 µM |  |  |  |  |  |
| CC(C)(C)OC(=O)N(O)CCCn1cnc2c(NC3CC3)ncnc21 | > 100 µM | > 100 | > 100 µM | > 100 µM | > 100 µM | > 100 µM | > 100 µM |  |  |  |  |  |
| CC1=CC2(C)C=C[C@@H]1C(=O)[C@@]1(C)CC[C@@](O)(C(C)C)[C@H]1CC2 | 32.5 µM | 45.5 | 45.9 µM | 35.2 µM | 51.9 µM | 72.1 µM | 40.2 µM |  |  |  |  |  |
| COc1ccc2nc3ccc(OC)cc3c(S(=O)Cc3ccccc3)c2c1 (stereo not drawn) | > 74.5 µM | 28.5 | 15.2 µM | 33.4 µM | 27.2 µM | 5.85 µM | 25.9 µM |  |  |  |  |  |

| Structure (SMILES) | TGI (NCI-H460 lung) | TGI (UACC-62 melanoma) [µM] | TGI (ACHN renal) | TGI (HOP-62 NSCLC) | TGI (PC-3 prostate) | TGI (DU-145 prostate) | TGI (COLO 205 colon) | GI50 (NCI-H460 lung) [µM] | GI50 (ACHN renal) [µM] | GI50 (HOP-62 NSCLC) [µM] | GI50 (DU-145 prostate) [µM] | GI50 (COLO 205 colon) [µM] |
| --- | --- | --- | --- | --- | --- | --- | --- | --- | --- | --- | --- | --- |
| CC1(C=O)CC(CCc2ccccc2)NC1Cc1ccc(O)cc1 (stereo not drawn) | 31.8 µM | 30.3 | 28.6 µM | 36.4 µM | 26.7 µM | 33.4 µM | 23.3 µM |  |  |  |  |  |
| COC(=O)CN1Cc2cc(C)cc(c2O)CN(CC(=O)OC)Cc2cc(C)cc(c2O)CN(CC(=O)OC)Cc2cc(C)cc(c2O)CN(CC(=O)OC)Cc2cc(C)cc(c2O)C1 | 50 µM and > 100 µM | > 100 | 50 µM and > 100 µM | 47.8 µM and > 100 µM | 50 µM and > 100 µM | 50 µM and > 100 µM | 50 µM and > 100 µM | 21.7 | 34.6 | 23.3 | 33.3 | 28.6 |
| COc1cc(-c2nc(N)c(C#N)c3c2CCS(=O)(=O)c2ccc(C)cc2-3)cc(OC)c1OC | > 100 µM | > 100 | > 100 µM | > 100 µM | > 100 µM | > 100 µM | > 100 µM |  |  |  |  |  |
| Nc1ncnc2c1ccn2CC#CCO | > 100 µM | > 100 | > 100 µM | > 100 µM | > 100 µM | > 100 µM | > 100 µM |  |  |  |  |  |
| COc1ccc(COCC[C@H](C)OC2OC(CO[Si](C)(C)C(C)(C)C)C(O)C(O)C2O)cc1 (stereo partly drawn) | > 100 µM | > 100 | > 100 µM | > 100 µM | > 100 µM | > 100 µM | > 100 µM |  |  |  |  |  |
| COc1ccc(/C=C2/SC(=Nc3ccccc3)N(NC(=O)Cc3ccccc3)C2=O)cc1 | > 100 µM | > 100 | > 100 µM | > 100 µM |  | > 100 µM | > 100 µM |  |  |  |  |  |
| COc1ccc(C[C@@H](C(=O)N[C@@H](C)C(N)=O)N(C)C(=O)[C@@H]2CCCN2C(=O)[C@H](CC(C)C)NC(=O)C(C)NC(=O)OCc2ccccc2)cc1 (stereo partly drawn) (Cbz-[ξA]LP[NMeY](Me)A-NH2) | > 100 µM | > 100 | > 100 µM | > 100 µM | > 100 µM | > 100 µM | > 100 µM |  |  |  |  |  |
| N#CCCC1(CCC#N)S(=O)(=O)OCCOS1(=O)=O |  | > 100 | > 100 µM | > 100 µM | > 100 µM | > 100 µM | > 100 µM |  |  |  |  |  |
| CN(C)c1n2c3ccc([N+](=O)[O-])cc3n3c(N(C)C)[n+]4ccccc4c3c2c2cccc[n+]12 | > 100 µM | > 100 | > 100 µM | > 100 µM | > 100 µM | > 100 µM | > 100 µM |  |  |  |  |  |
| CC(=Nc1ccc(Cl)cc1)c1ccncc1 | > 100 µM |  | > 100 µM | > 100 µM | > 100 µM | > 100 µM | > 100 µM |  |  |  |  |  |
| O=C(Nn1c(-c2ccccc2)nc2ccccc2c1=O)c1cccc([N+](=O)[O-])c1 | > 100 µM | > 100 | > 100 µM | > 100 µM | > 100 µM | > 100 µM | > 100 µM |  |  |  |  |  |
| COC(=O)c1cc(/C=C/C(=O)Cc2ccccc2)cn1S(=O)(=O)c1ccccc1 | > 100 µM | > 100 | > 100 µM | > 100 µM | > 100 µM | > 100 µM | > 100 µM |  |  |  |  |  |
| Nc1c(F)c(F)c2c(c1F)N(CCCCCl)c1ccccc1S2 | > 100 µM | > 100 | > 100 µM | > 100 µM | > 100 µM | > 100 µM | > 100 µM |  |  |  |  |  |
| N#Cc1c(-c2ccccc2)cn(C(=O)c2ccccc2)c1N |  | > 100 | > 100 µM | > 100 µM | > 100 µM | > 100 µM | > 100 µM |  |  |  |  |  |
| CCCCC/C=C\C=C\CCCCCCCCC(=O)OC | > 100 µM |  | > 100 µM | > 100 µM | > 100 µM | > 100 µM | > 100 µM |  |  |  |  |  |
| CO[P@@]1(=O)O[C@@H](c2ccccc2)[C@H](O)[C@@]1(O)c1ccccc1 | > 100 µM | > 100 | > 100 µM |  | > 100 µM | > 100 µM | > 100 µM |  |  |  |  |  |
| Cc1cn(CC(=S)NCCc2c[nH]c3ccccc23)c(=O)[nH]c1=O |  | > 100 | > 100 µM | > 100 µM | > 100 µM | > 100 µM | > 100 µM |  |  |  |  |  |
| CC(CC(=O)N1C2CC3CCC2(CS1(=O)=O)C3(C)C)[Si](C)(C)C (stereo not drawn) | > 100 µM |  | > 100 µM | > 100 µM | > 100 µM | > 100 µM | > 100 µM |  |  |  |  |  |
| CC(=O)N1C(c2[nH]c3ccccc3c2Cc2ccccc2)CCN1c1ccccc1 (stereo not drawn) | > 10 µM |  | > 10 µM | > 10 µM | > 10 µM | > 10 µM | > 10 µM |  |  |  |  |  |
| O=c1[nH][nH]c(=O)n1Cc1ccccc1 | > 100 µM | > 100 |  |  | > 100 µM | > 100 µM | > 100 µM |  |  |  |  |  |
